Measured values from US4975450A, “Antidiarrheal” (Slovenska Akademia Vied, priority 1987, dated 1990).
Where two headings read alike, the source gives them in different places.

What was measured:
mice [1] = experiment: teratological and embryotoxic experiments on mice
Salmonella typhimurium = experiment: mutation tests and reparative tests, Salmonella typhimurium
dogs (beagle) = experiment: chronic six months toxicity study on dogs; type: in vivo
in vivo [2] = conditions: guinea pig
rat = conditions: in vivo
mice [3] = experiment: castor oil-provoked diarrhea in mice; type: in vivo; conditions: 20 mg/kg, 30 minutes before castor oil; control 91.2±4.4 minutes
[4] = V. Nosalova et al 1986; cited from earlier work
rats = experiment: one month toxicity study of rats; type: in vivo
[5] = retention of stomach content; type: in vivo; conditions: active substance 10-20 mg/kg; atropin dose not stated
adenylate cyclase = conditions: Hynie et al 1986; cited from earlier work
mice [6] = conditions: mouse, in vivo
mice [7] = conditions: mouse, in vivo; remark: listed apart in the source
[8] = system: intestinal passage of carbo adsorbens; experiment: intestinal passage of carbo adsorbens, rats; type: in vivo; conditions: for intestinal passage of carbo adsorbens, small intestines: 100% is the complete intestine length, substance 20 mg/kg, atropin 5 mg/kg, reference 58.7 ± 2.5
Method: (§1) The active substance in 20 mg dose per one kg, if administered 30 minutes before administering castor oil, has extended the latent period up to the beginning of the diarrhea from 91.2±4.4 minutes to 127.3±6.3 minutes. […] (Table 1).
(§2) TABLE 1 - Influence of pharmaceutical substances on the intestinal passage of carbo adsorbens (100% is the complete intestine length): […]

in vivo [9] = conditions: rat
calves = experiment: reduction of diarrhea occurrence in new-born calves; type: in vivo
Method: With the referenoe individuals (n=66) diarrhea has occurred with about 80% thereof. The medicament of the invention, if administered for 2 to 3 days in a 10 mg daily dose, reduced the diarrhea ocourrence by 40-50%, and with a 20 mg d aily dose during 3 days of administration even less than 4% (P<0.01). In the control group of calves to which no medicament was administered, a multiple mortality has been observed.

[10] = cited from earlier work
in vivo [11] = conditions: rabbit
[12] = system: intestinal passage of carbo adsorbens; experiment: intestinal passage of carbo adsorbens, mice; type: in vivo; conditions: for intestinal passage of carbo adsorbens, complete intestine: atropin 5 mg/kg, reference 75.0 ± 1.9
Method: as §1, §2

in vivo [13] = conditions: mouse
[14] = 100% is the complete intestine length, substance 20 mg/kg

In the case of `CCCCCOc1cccc(NC(=O)O[C@@H]2CCCC[C@H]2N2CCCC2)c1` (relative stereo) [substance of the formula, (±)-trans-2(1-pyrrolidinyl) cyclohexylester of 3-(n)-pentyloxycarbanilic acid], the “fetal weight, implantates, placenta and amniotic liquor” value (mice [1]; 0.21, 2.1, 8.4, 21, 42, 84 mg/kg) is reported as “no changes in the amounts of fetal weight implantates, placenta and amniotio liquor were found”, the “fetuses with palate fissure” value (mice [1]; only at highest dose of 84 mg/kg) is reported as “less than 10%” and the “mutation changes in reparative tests” value (Salmonella typhimurium) is reported as “have not been observed”. For the same compound, the “qualitative or quantitative mutations” value (Salmonella typhimurium) was “have not been observed”, the “changes in weight of dogs” value (dogs (beagle); both sexes, six months, p.o. 2, 10, 30 mg/kg) was “has not exhibited with doses of 2; 10; 30 mg/kg any extensive changes in the weight of dogs” and the “harmfulness of the substance in the six months period” value (dogs (beagle); p.o., dose range up to 2 mg/kg) was “no proofs about any harmfulness of the substance”. The “toxicity at the high doses (weight, behavior, mortality)” value (dogs (beagle); six months, p.o., two highest doses) was “a decrease in weight, defective behavior and mortality have occurred”, the “toxic effect in hematological, biochemical and morphological indices” value (dogs (beagle); six months, p.o., two lower doses) was “No toxic effect in hematological, biochemical and morphological indices has been observed with the two lower doses” and the “heart activity and psychomotoric changes” value (dogs (beagle); six months, p.o., two lower doses (exception)) was “minor changes in the heart activity, and particularly by influencing the pulse conductivity and further by psychomotoric unrest”. For the same compound, the LD50 (in vivo [2]; iv) was 7.8 mg/kg, the LD50 (in vivo [2]; sc) was 73.2 mg/kg and the “mutation changes in reparative tests” value (Escherichia coli) was “have not been observed”. The “qualitative or quantitative mutations” value (Escherichia coli) was “have not been observed”, the LD50 (rat; ip) was 75 mg/kg and the LD50 (rat; iv) was 13.8 mg/kg. For the same compound, the LD50 (rat; po) was 1030 mg/kg, the LD50 (rat; sc) was 283 mg/kg and the “latent period up to the beginning of the diarrhea” value (mice [3]) was 127.3 ± 6.3 min. The “antiulcerose / gastric cytoprotective effect” value [4] was “antiulcerose effects with a marked gastric cytoprotective effect”, the “hematological, biochemical and morphological indices or animal weight” value (rats; p.o. 0.1, 1, 10 mg/kg) was “neither hematological, biochemical and morphological indices or the animal weight have not been considerably influenced” and the influence on behavior (rats; p.o. 0.1, 1, 10 mg/kg) was “has not shown any influence on the behavior of animals”. For the same compound, the increase in weight (rats; p.o., two highest doses) was “in some cases lower than average”, the “retention of stomach content” value [5] was “unchanged” and the “reduction of adenylate cyclase activity” value (adenylate cyclase) was “a significant reduction of adenylate cyclase activity”. The “occurrence of skeletal abnormalities” value (mice [6]) was “the same as in the reference group”, the LD50 (mice [7]; ip) was 59 mg/kg and the LD50 (mice [7]; po) was 840 mg/kg. For the same compound, the LD50 (mice [7]; sc) was 128 mg/kg, the “influence on passage of intestine content (in words)” value [8] was “does not significantly influence the passage of intestine content” and the “intestinal passage of carbo adsorbens, small intestines” value [8] was 60.1 ± 1.5%. For the same compound, the LD50 (in vivo [9]; ip) was 70 mg/kg, the LD50 (in vivo [9]; iv) was 11.8 mg/kg and the LD50 (in vivo [9]; po) was 1110 mg/kg. The LD50 (in vivo [9]; sc) was 295 mg/kg, the “mortality of untreated control calves compared with treated calves (in words)” value (calves; bovine, in vivo) was “a statistically considerably higher number perish” and the “reduction of diarrhea occurrence” value (calves; calves, average 40 kg, 10 mg daily dose, 2 to 3 days, reference about 80% (n=66)) was 40-50%. For the same compound, the “diarrhea occurrence (printed as: reduced ... even less than 4%)” value (calves; calves, average 40 kg, 20 mg daily dose, 3 days, P<0.01, reference about 80% (n=66)) was “less than 4%”, the “reduction of diarrhea (in words)” value (calves; calves, 10 and 20 mg per diem, one to three days after birth) was “significant reduction of diarrhea with involved animals depending upon the dose applied” and the locally anaesthetic effect ([10]; L. Benes et al 1969) was “exhibits the well-known locally anaesthetic effects”. The “locally anaesthetic and spasmolytic effects” value ([10]; P. Svec et al 1976) was “locally anaesthetic and spasmolytic effects”, the “locally anaesthetic activity at decreased pH” value ([10]; media with decreased pH value at the acid side, S. Stole et al 1978) was “maintenance of its locally anaesthetic activity even in media with decreased pH value at the acid side” and the LD50 (in vivo [11]; ip) was 46.5 mg/kg. The LD50 (in vivo [11]; iv) was 2.92 mg/kg, the “influence on passage of intestine content (in words)” value [12] was “does not significantly influence the passage of intestine content” and the “intestinal passage of carbo adsorbens, complete intestine” value [12, 14] was 80.3 ± 1.2%. The “intestinal passage of carbo adsorbens, small intestine” value ([12]; 100% is the complete intestine length, substance 20 mg/kg, reference 91.7 ± 2.2) was 96.6 ± 0.95%, the LD50 (in vivo [13]; ip) was 56 mg/kg and the LD50 (in vivo [13]; iv) was 10.3 mg/kg. For the same compound, the LD50 (in vivo [13]; po) was 790 mg/kg and the LD50 (in vivo [13]; sc) was 122 mg/kg.
In the case of `CN1C2CCC1CC(OC(=O)C(CO)c1ccccc1)C2` (stereo not shown) [atropin, reference compound], the “intestinal passage of carbo adsorbens, small intestines” value [8] is reported as 46.3 ± 2.5% and the “intestinal passage of carbo adsorbens, complete intestine” value [12, 14] is reported as 51.4 ± 2.6%.
